Consider one compound from patent US9724337B2, “AG-205 for the treatment of breast cancer” (University of Kentucky Research Foundation, priority 2009, dated 2017).

Data set [1] deals with NIH-3T3 cells. Briefly: Growth inhibition of NIH-3T3 cells. Type of data set: cell-based. Conditions: wild-type EGFR.
The subject of data set [2] is EGFR. Kind of data set: Western blot of EGFR levels in A549 cells. Type of data set: cell-based, human. The protocol:
Panel A is a diagram indicating the positions of the siRNA molecules targeting Pgrmc1. Exons 1, 2 and 3 are indicated by “ex”. MDA-MB-468 cells were transfected with a control siRNA (siCON, lanes 1 and 3) or two separate siRNAs targeting Pgrmc1 (siPGR and siPGR2, lanes 2 and 4, respectively). In panels B-E and H-L, protein levels were analyzed by western blot for EGFR (B), phospho-tyrosine (C), Pgrmc1 (D) and ku70 (E), as a control for protein loading. Panels F—H show western blot analyses for (F) IGF-1R, (G) c-Kit and (H) tfR. In panels I and J, transcript levels were analyzed by reverse transcriptase-PCR for EGFR (I) and Pgrmc1 (J). The top band indicates the gene of interest, while actin primers were included in the same reaction as a control for cDNA loading. […] In panels K-L, MDA-MB-468 cells were treated with increasing doses of the Pgrmc1 ligand AG-205. Protein expression was analyzed by western blot for EGFR (K) and ku70 (L). Cells were treated with 0 (lanes 1), 2 (lanes 2), 10 (lanes 3) or 50 (lanes 4) μM AG-205 for 24 hours in serum-free medium. In panels M-N, A549 cells were treated with the same doses and analyzed for EGFR (M) and ku70 (N). […] Expression analyses were repeated at least in duplicate throughout.
Immunological techniques. […]
A general note: A western blot detects proteins with antibodies after separation by electrophoresis.

Data set [3] concerns A431. Briefly: AG-205 viability assay in A431 cells. It counts as cell-based. As to conditions: A431, epitheloid, serum-starved, EGFR wild-type.
Data set [4] deals with A549 cells. Kind of data set: Viability of A549 cells. Type of data set: cell-based, human. The protocol:
(§1) (A) Pgrmc1 (SEQ ID NO: 7) shares homology with AtMAPR2 (SEQ ID NO: 8) (underlined residues), which was the target for a screen for small molecule ligands. The putative heme-binding Tyr106 and Tyr112 are indicated with black boxes. (B) The molecular structure of AG-205 includes multiple aromatic components. (C) Spectroscopic scan of Pgrmc1 with vehicle control compared with vehicle plus 50 µM AG-205. The decrease in relative absorbance at 400 nm is consistent with an AG-205-induced change in the spectral properties of Pgrmc1-heme. The scan is representative of four separate scans using different Pgrmc1 protein preparations. The lower scan is a comparison of purified Pgrmc1 without and with the vehicle control (DMSO). Panels D (A549 cells) and E (MDA-MB-231 cells) are viability assays of cells maintained in 0.1% serum (solid line) or 10% serum (dashed line) and treated with increasing doses of AG-205. Percent viability was determined by cell counting, and “% viability” refers to the cell number relative to the untreated control.
Tissue culture. MDA-MB-468 cells were a kind gift from Dr. Rina Plattner of the University of Kentucky and were maintained in medium consisting of Dulbecco's Modified Eagle Medium containing 10% serum supreme (Fisher) and antibiotics. Cells were grown at 37° C. in 5% CO2 in air. A549 and HCC827 lung cancer cells, as well as SK-Br-3 breast cancer cells were obtained from the ATCC (American Type Culture Collection) and were grown under the same conditions. The H1650 lung cancer cell line was a kind gift from Dr. Heinz Kohler of the University of Kentucky. The Pgrmc1 ligand AG-205 was purchased from Timtec, Inc. The EGFR inhibitor AG1478 was from Biomol, Inc. and was used at a concentration range of 0.8-40 μM.
Proliferation, anchorage-independent growth and migration assays. For growth curves, cells were plated in 24 well dishes and grown in 10% serum-containing medium. At various times, the cells were harvested with trypsin and fixed with formaldehyde added to a final concentration of 3.7%. Following the harvest of the final time point, the cells from each time point were counted using a Bright-line hemocytometer (Hausser Scientific).
MTT viability assays were performed as described previously. Briefly, cells were plated in 96-well tissue culture dishes and grown in various media with different drug doses. The cells were then incubated with 0.5 mg/ml of 3-[4,5-dimethylthiazol-2-y]-2,5-diphenyltetrazolium bromide for 1.5 hours, at which time the media was removed, the precipitated crystals were dissolved in dimethyl sulfoxide, and the absorbance at 590 nm was measured using a Bio-Tek μQuant spectrophotometer.

Data set [5] concerns Met receptor tyrosine kinase. Briefly: Western blot of Met in A549 cells. Type of data set: cell-based, human. The protocol: (§2) Immunological techniques. Cells were extracted in RIPA buffer (50 mM Tris, pH 8.0, 1% Nonidet P-40, 150 mM NaCl, 0.5% sodium deoxycholate, 0.1% sodium dodecyl sulfate, 1 mM phenylmethylsulfonyl fluoride, 10 μg/ml of aprotinin, leupeptin and pepstatin) for standard western blotting. The antibodies used in the study were anti-caveolin-1 (N-20, Santa Cruz Biologicals, # sc-894), anti-EGFR (1005, Santa Cruz, # sc-03), anti-ku70 (A-9, Santa Cruz # sc-5309), anti-Met (C-12, Santa Cruz # sc-10), anti-PARP (H-250, Santa Cruz # sc-7150), anti-phosphotyrosine (P-Tyr-100, Cell Signaling), anti-Pgrmc1 (Novus Biologics) and anti-tubulin (Neomarkers). Some western blots for Pgrmc1 were performed with a polyclonal antibody called anti-PGR-UK1 which was raised in rabbits to an internal 10 amino acid peptide.

Data set [6] has as its target Pgrmc1 (Homo sapiens, UniProt O00264). Briefly: Western blot of Pgrmc1 levels in MDA-MB-468 cells. It counts as cell-based. The protocol:
as §2

Data set [7] addresses Pgrmc1-heme complex (Homo sapiens, UniProt O00264). Briefly: Spectroscopic scan of purified Pgrmc1 with AG-205. Type of data set: binding. As to conditions: AG-205 added to purified Pgrmc1, spectroscopic scan. The protocol: as §1

Chain of Pgrmc1 (O00264 whole entry): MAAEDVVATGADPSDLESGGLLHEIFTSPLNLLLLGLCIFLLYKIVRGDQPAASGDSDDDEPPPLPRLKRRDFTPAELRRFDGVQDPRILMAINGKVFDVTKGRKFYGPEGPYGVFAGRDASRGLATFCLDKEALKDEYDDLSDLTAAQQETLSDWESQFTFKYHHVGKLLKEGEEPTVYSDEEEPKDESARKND
Chain of Pgrmc1-heme complex (O00264 whole entry, one chain of several): as the sequence (O00264 whole entry) above

Broadly, the IC50 is the point on the concentration scale where inhibition reaches its midpoint. `Cc1ccc2c(c1)[C@H]1CN(C)CC[C@H]1N2C(=O)CSc1nnnn1-c1ccc(Cl)cc1` [AG-205]: the growth inhibition result in data set [1] is “inhibited”. The “dose with optimal EGFR de-stabilizing activity” value in data set [2] lay within 20 to 50 µM. Further, the EGFR stability entry in data set [2] (increasing doses) was “de-stabilized EGFR in a dose-dependent manner”. For the same compound, the half-inhibitory concentration (IC50) in data set [3] came to 8 µM; in data set [4] (A549, lung, serum-starved, EGFR wild-type, read-out: IC50 values for AG-205, Serum-starved) it was 15 µM. Besides, in data set [4] (A549 cells, 20 μM dose, 72-96 hours after treatment), the cell viability result is on record as “marked loss of viability”. Besides, the “decrease in viability / cells killed” value in data set [4] (A549 cells, single agent) stood at 47%. Besides, in data set [4] (A549 cells, wild-type EGFR), the “cell growth inhibition” value is “efficiently inhibited cell growth”. Further, the “toxicity in Pgrmc1-inhibited A549 cells” value in data set [4] (Pgrmc1-inhibited versus control A549 cells, after 36 hours, P=0.0001) is recorded as “decreased toxicity”. Moreover, in data set [4] (cells expressing heme binding-deficient mutant, increasing doses of AG-205, cell counting), the “viability of Pgrmc1-hbd-expressing cells” value is “partially reversed the loss of viability”. In data set [5], the “stability of Met receptor tyrosine kinase” value is “little effect”. For the same compound, the “increase in Pgrmc1 levels” value in data set [6] (12 μM dose) turned out to be 4.8 fold. For the same compound, the Pgrmc1 levels entry in data set [6] (doses of 25 and 50 μM) is “nearly undetectable levels”. Moreover, the “change in absorbance of purified Pgrmc1” value in data set [7] was “shift in absorbance at approximately 400 nm”.
